According to patent publication US20080039444A1, “COMPOUNDS” (GLAXO GROUP LIMITED, priority 2006, published 2008):
Counter-ions that a name gives are not always drawn. Like-named read-outs stand apart in the source and are kept apart here.

What was measured:
[1] = biological target: T1, human H1 receptor (Homo sapiens, UniProt P35367); experiment: Histamine H1 functional antagonist assay (FLIPR): determination of antagonist pA2; assay type: cell-based
T1 construct: expressed in transfected cells
Method: (§1) The human H1 receptor is cloned using known procedures described in the literature [Biochem. Biophys. Res. Commun., 201(2):894 (1994)]. Chinese hamster ovary (CHO) cells stably expressing the human H1 receptor are generated according to known procedures described in the literature [Br. J. Pharmacol., 117(6):1071 (1996)].
(§2) Histamine H1 functional antagonist assay: Determination of antagonist pA2 and duration
The histamine H1 receptor expressing CHO cells are seeded into non-coated black-walled clear bottom 96-well tissue culture plates as described above. Following overnight culture, growth medium is removed from each well, washed with 200 μl phosphate buffered saline (PBS) and is replaced with 50 μl loading dye (250 μM Brilliant Black, 1 μM Fluo-4 diluted in Tyrodes buffer+probenecid (145 mM NaCl, 2.5 mM KCl, 10 mM HEPES, 10 mM D-glucose, 1.2 mM MgCl2, 1.5 mM CaCl2, 2.5 mM probenecid, pH adjusted to 7.40 with NaOH 1.0 M)). Cells are incubated for 45 min at 37° C. The loading buffer is removed and the cells are washed as above, and 90 μl of Tyrodes buffer+probenecid is added to each well. 10 μl of test compound, diluted to the required concentration in Tyrodes buffer+probenecid (or 10 μl Tyrodes buffer+probenecid as a control) is added to each well and the plate is incubated for 30 min at 37° C., 5% CO2. The plates are then placed into a FLIPR™ (Molecular Devices, UK) to monitor cell fluorescence (λex=488 nm, λEM=540 nm) in the manner described in Sullivan et al., (In: Lambert DG (ed.), Calcium Signaling Protocols, New Jersey: Humana Press, 1999, 125-136) before and after the addition of 50 μl histamine over a concentration range of 1 mM-0.1 nM. The resultant concentration response curves are analysed by non-linear regression using a standard four parameter logistic equation to determine the histamine EC50, the concentration of histamine required to produce a response of 50% of the maximum response to histamine. The antagonist pA2 is calculated using the following standard equation: pA2=log(DR-1)- log[B] where DR=dose ratio, defined as EC50antagonist-treated/EC50control and [B]=concentration of antagonist.

[2] = biological target: T1, human H1 receptor; experiment: Histamine H1 functional antagonist assay: antagonist duration after washout; assay type: cell-based; conditions: at one or more time points
Method: as §1, §2
To determine the antagonist duration, cells are cultured overnight in non-coated black-walled clear bottom 96-well tissue culture plates, are washed with PBS and are incubated with a concentration of antagonist chosen to give an approximate DR in the range 30-300. Following the 30 min antagonist incubation period, the cells are washed two or three times with 200 μl of PBS and then 100 μl Tyrodes buffer is added to each well to initiate antagonist dissociation. Following incubation for predetermined times, typically 30-270 min at 37° C., the cells are then washed again with 200 μl PBS and are incubated with 100 μl Tyrodes buffer containing Brilliant Black, probenecid and Fluo-4 for 45 min at 37° C., as described above. After this period, the cells are challenged with histamine in the FLIPR™ as described above. The dose ratio at each time point is used to determine the fractional H1 receptor occupancy by the following equation: fractional receptor occupancy=(DR-1)/DR. The decrease in receptor occupancy over time approximates to a straight line and is analysed by linear regression. The slope of this straight line fit is used as an index of the dissociation rate of the antagonist. The dose ratios for antagonist treated cells and for antagonist treated and washed cells at each time point are used to calculate a relative dose ratio (rel DR) which is also used as an index of antagonist duration. Antagonists with long duration of action produce rel DR values close to 1, and antagonists with short duration of action produce rel DR values that approaches the dose ratio value obtained for antagonist treatment alone.

[3] = CNS penetration (intravenous bolus or infusion at steady state, blood and brain levels); assay type: in vivo, rat; conditions: male CD Sprague Dawley rats
Method: (i) CNS penetration by bolus administration
Compounds are dosed intravenously at a nominal dose level of 1 mg/kg to male CD Sprague Dawley rats. Compounds are formulated in 5% DMSO/45% PEG200/50% water. Blood samples are taken under terminal anaesthesia with isoflurane at 5 min post-dose and the brains are also removed for assessment of brain penetration. Blood samples are taken directly into heparinised tubes. Blood samples are prepared for analysis using protein precipitation and brain samples are prepared using extraction of drug from brain by homogenisation and subsequent protein precipitation. The concentration of parent drug in blood and brain extracts is determined by quantitative LC-MS/MS analysis using compound-specific mass transitions.
(ii) CNS penetration following intravenous infusion at steady state
A loading dose of the compounds is given to male CD Sprague Dawley rats at a nominal dose level of 0.4 mg/kg. The compounds are then infused intravenously for 4 h at a nominal dose level of 0.1 mg/kg/h. Compounds are formulated in 2% DMSO/30% PEG200/68% water. Serial or terminal blood samples are taken at 0.5, 1.5, 2.5, 3, 3.5 and 4 h post dose. The final blood sample is collected under terminal anaesthesia with isoflurane and the brains are also removed for assessment of brain penetration. Blood samples are taken directly into heparinised tubes. Blood samples are prepared for analysis using protein precipitation and brain samples are prepared using extraction of drug from brain by homogenisation and subsequent protein precipitation. The concentration of parent drug in blood and brain extracts is determined by quantitative LC-MS/MS analysis using compound-specific mass transitions.

[4] = biological target: T1, human H1 receptor; experiment: Histamine H1 functional antagonist assay (FLIPR): determination of functional pKi values; assay type: cell-based; conditions: CHO cells expressing human H1, histamine at EC80; read-out: average pKi (pKb) at H1 (converted)
Description: H1 receptor cell line generation and FLIPR assay protocol
1. Generation of histamine H1 cell line
as §1
Histamine H1 functional antagonist assay: Determination of functional pKi values […]
10 μl of test compound, diluted to the required concentration in Tyrodes buffer+probenecid (or 10 μl Tyrodes buffer+probenecid as a control) is added to each well and the plate is incubated for 30 min at 37° C., 5% CO2. The plates are then placed into a FLIPR™ (Molecular Devices, UK) to monitor cell fluorescence (λex=488 nm, αEM=540 nm) in the manner described in Sullivan et al., (In: Lambert DG (ed.), Calcium Signaling Protocols, New Jersey: Humana Press, 1999, 125-136) before and after the addition of 10 μl histamine at a concentration that results in the final assay concentration of histamine being EC80.
Functional antagonism is indicated by a suppression of histamine induced increase in fluorescence, as measured by the FLIPR™ system (Molecular Devices). By means of concentration effect curves, functional affinities are determined using standard pharmacological mathematical analysis.

[5] = CHO cells expressing human H1, histamine concentration response curves, read-out: average pA2 values at H1 (converted)

T1 sequence (P35367 whole entry): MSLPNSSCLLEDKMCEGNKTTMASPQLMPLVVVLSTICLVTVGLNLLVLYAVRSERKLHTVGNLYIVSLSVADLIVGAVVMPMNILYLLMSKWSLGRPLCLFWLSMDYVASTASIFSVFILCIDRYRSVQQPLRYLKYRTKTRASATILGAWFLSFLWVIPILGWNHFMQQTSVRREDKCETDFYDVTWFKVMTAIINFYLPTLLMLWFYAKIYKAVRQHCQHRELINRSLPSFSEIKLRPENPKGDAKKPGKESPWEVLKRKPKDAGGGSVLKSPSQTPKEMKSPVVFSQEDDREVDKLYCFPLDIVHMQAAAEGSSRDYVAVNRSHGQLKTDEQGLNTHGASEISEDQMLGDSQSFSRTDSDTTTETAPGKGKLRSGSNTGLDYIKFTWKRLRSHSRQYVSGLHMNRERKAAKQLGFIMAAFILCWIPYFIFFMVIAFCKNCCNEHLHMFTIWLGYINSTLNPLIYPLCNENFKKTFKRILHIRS

Structure (SMILES)	Kb [1, 5] [nM]	duration of action compared with azelastine in the histamine H1 functional antagonist assay [2]	also measured
O=c1c2ccccc2c(Cc2ccc(Cl)cc2)nn1C1CCCN(CCCc2ccc(OCCCN3CCCCCC3)cc2)CC1 (stereo not shown) [Example 12, 4-[(4-Chlorophenyl)methyl]-2-{1-[3-(4-{[3-(hexahydro-1H-azepin-1-yl)propyl]oxy}phenyl)propyl]hexahydro-1H-azepin-4-yl}-1(2H)-phthalazinone]	< 10	–	–
O=c1c2ccccc2c(Cc2ccc(F)cc2)nn1C[C@H]1CCCN1CCCCc1ccc(OCCCN2CCCCCC2)cc1 [Example 9, 4-[(4-Fluorophenyl)methyl]-2-({(2R)-1-[4-(4-{[3-(hexahydro-1H-azepin-1-yl)propyl]oxy}phenyl)butyl]-2-pyrrolidinyl}methyl)-1(2H)-phthalazinone]	< 1	longer duration of action than azelastine	–
O=C(NCCN1CCCC(n2nc(Cc3ccc(Cl)cc3)c3ccccc3c2=O)CC1)c1ccc2c(c1)CCN(C1CCC1)CC2 (stereo not shown) [Example 18, N-(2-{4-[4-[(4-Chlorophenyl)methyl]-1-oxo-2(1H)-phthalazinyl]hexahydro-1H-azepin-1-yl}ethyl)-3-cyclobutyl-2,3,4,5-tetrahydro-1H-3-benzazepine-7-carboxamide diformate salt]	–	longer duration of action than azelastine	Kb [1]: < 10 nM
O=c1c2ccccc2c(Cc2ccc(Cl)cc2)nn1C1CCCN(CCCOc2ccc3c(c2)CCN(C2CCC2)CC3)CC1 (stereo not shown) [Example 16, 4-[(4-Chlorophenyl)methyl]-2-(1-{3-[(3-cyclobutyl-2,3,4,5-tetrahydro-1H-3-benzazepin-7-yl)oxy]propyl}hexahydro-1H-azepin-4-yl)-1(2H)-phthalazinone formate salt]	–	–	CNS penetration compared with azelastine [3]: comparable CNS penetration to azelastine
O=c1c2ccncc2c(Cc2ccc(Cl)cc2)nn1C[C@H]1CCCN1CCCCc1ccc(OCCCN2CCCCCC2)cc1 [Example 23, 4-[(4-Chlorophenyl)methyl]-2-({(2R)-1-[4-(4-{[3-(hexahydro-1H-azepin-1-yl)propyl]oxy}phenyl)butyl]-2-pyrrolidinyl}methyl)pyrido[3,4-d]pyridazin-1(2H)-one]	–	longer duration of action than azelastine	Kb [1]: < 1 nM
COc1ccc(Cc2nn(C[C@H]3CCCN3CCCCc3ccc(OCCCN4CCCCCC4)cc3)c(=O)c3ccccc23)cc1 [Example 7, 2-({(2R)-1-[4-(4-{[3-(Hexahydro-1H-azepin-1-yl)propyl]oxy}phenyl)butyl]-2-pyrrolidinyl}methyl)-4-{[4-(methyloxy)phenyl]methyl}-1(2H)-phthalazinone diformate]	–	longer duration of action than azelastine	Ki [4]: < 10 nM; Kb [1]: < 1 nM; CNS penetration compared with azelastine [3]: lower CNS penetration than azelastine
CN(CCCCc1ccc(OCCCN2CCCCCC2)cc1)CCn1nc(Cc2ccc(Cl)cc2)c2ccccc2c1=O [Example 3, 4-[(4-Chlorophenyl)methyl]-2-{2-[[4-(4-{[3-(hexahydro-1H-azepin-1-yl)propyl]oxy}phenyl)butyl](methyl)amino]ethyl}-1(2H)-phthalazinone]	< 10	–	–

The next lines start with results.

Kb [1, 5] [nM]	Structure (SMILES)	duration of action compared with azelastine in the histamine H1 functional antagonist assay [2]	also measured
< 10	O=c1c2ccccc2c(Cc2ccc(O)cc2)nn1C[C@H]1CCCN1CCCCc1ccc(OCCCN2CCCCCC2)cc1 [Example 8, 2-({(2R)-1-[4-(4-{[3-(Hexahydro-1H-azepin-1-yl)propyl]oxy}phenyl)butyl]-2-pyrrolidinyl}methyl)-4-[(4-hydroxyphenyl)methyl]-1(2H)-phthalazinone]	longer duration of action than azelastine	–
< 1	O=c1c2ccccc2c(Cc2ccc(Cl)cc2)nn1C[C@H]1CCCN1CCCCCc1ccc(OCCCN2CCCCCC2)cc1 [Example 6, 4-[(4-Chlorophenyl)methyl]-2-({(2R)-1-[5-(4-{[3-(hexahydro-1H-azepin-1-yl)propyl]oxy}phenyl)pentyl]-2-pyrrolidinyl}methyl)-1(2H)-phthalazinone]	–	–
< 10	O=c1c2ccccc2c(Cc2ccc(Cl)cc2)nn1C1CCCN(CCc2ccc(OCCCN3CCCCCC3)cc2)CC1 (stereo not shown) [Example 11, 4-[(4-Chlorophenyl)methyl]-2-{1-[2-(4-{[3-(hexahydro-1H-azepin-1-yl)propyl]oxy}phenyl)ethyl]hexahydro-1H-azepin-4-yl}-1(2H)-phthalazinone]	–	–
< 10	O=c1c2ccccc2c(Cc2ccc(Cl)cc2)nn1C[C@H]1CCCN1CCCOc1ccc2c(c1)CCN(C1CCC1)CC2 [Example 15, 4-[(4-Chlorophenyl)methyl]-2-[((2R)-1-{3-[(3-cyclobutyl-2,3,4,5-tetrahydro-1H-3-benzazepin-7-yl)oxy]propyl}-2-pyrrolidinyl)methyl]-1(2H)-phthalazinone]	longer duration of action than azelastine	–
